According to the CheMixHub viscosity set:

Experiment: xn = mol fraction of the nth substance listed

Nc1ccccc1 + CCCCO
Conditions	viscosity [mPa·s]
298.15 K, 101 kPa, x1 = 0.09983	2.368
298.15 K, 101 kPa, x1 = 0.1935	2.278
298.15 K, 101 kPa, x1 = 0.3051	2.249
298.15 K, 101 kPa, x1 = 0.4055	2.287
298.15 K, 101 kPa, x1 = 0.4837	2.343
298.15 K, 101 kPa, x1 = 0.6005	2.474
298.15 K, 101 kPa, x1 = 0.6946	2.637
298.15 K, 101 kPa, x1 = 0.8028	2.899
298.15 K, 101 kPa, x1 = 0.8996	3.231
303 K, 101.33 kPa, x1 = 0.1	2.031
303 K, 101.33 kPa, x1 = 0.2	1.975
303 K, 101.33 kPa, x1 = 0.3	1.951
303 K, 101.33 kPa, x1 = 0.4	1.938
303 K, 101.33 kPa, x1 = 0.5	1.962
303 K, 101.33 kPa, x1 = 0.6	2.013
303 K, 101.33 kPa, x1 = 0.7	2.186
303 K, 101.33 kPa, x1 = 0.8	2.342
303 K, 101.33 kPa, x1 = 0.9	2.751
303.15 K, 100 kPa, x1 = 0.1195	2.083
303.15 K, 100 kPa, x1 = 0.2339	1.951
303.15 K, 100 kPa, x1 = 0.3649	1.857
303.15 K, 100 kPa, x1 = 0.4693	1.843
303.15 K, 100 kPa, x1 = 0.5498	1.878
303.15 K, 100 kPa, x1 = 0.6658	1.994
303.15 K, 100 kPa, x1 = 0.7945	2.261
303.15 K, 100 kPa, x1 = 0.9166	2.647
303.15 K, 101 kPa, x1 = 0.09983	2.049
303.15 K, 101 kPa, x1 = 0.1935	1.965
303.15 K, 101 kPa, x1 = 0.3051	1.941
303.15 K, 101 kPa, x1 = 0.4055	1.965
303.15 K, 101 kPa, x1 = 0.4837	2.01
303.15 K, 101 kPa, x1 = 0.6005	2.13
303.15 K, 101 kPa, x1 = 0.6946	2.248
303.15 K, 101 kPa, x1 = 0.8028	2.468
303.15 K, 101 kPa, x1 = 0.8996	2.745
308.15 K, 101 kPa, x1 = 0.09983	1.8
308.15 K, 101 kPa, x1 = 0.1935	1.734
308.15 K, 101 kPa, x1 = 0.3051	1.703
308.15 K, 101 kPa, x1 = 0.4055	1.722
308.15 K, 101 kPa, x1 = 0.4837	1.77
308.15 K, 101 kPa, x1 = 0.6005	1.857
308.15 K, 101 kPa, x1 = 0.6946	1.971
308.15 K, 101 kPa, x1 = 0.8028	2.144
308.15 K, 101 kPa, x1 = 0.8996	2.375
313.15 K, 100 kPa, x1 = 0.1195	1.605
313.15 K, 100 kPa, x1 = 0.2339	1.484
313.15 K, 100 kPa, x1 = 0.3649	1.39
313.15 K, 100 kPa, x1 = 0.4693	1.364
313.15 K, 100 kPa, x1 = 0.5498	1.393
313.15 K, 100 kPa, x1 = 0.6658	1.492
313.15 K, 100 kPa, x1 = 0.7945	1.709
313.15 K, 100 kPa, x1 = 0.9166	2.027
313.15 K, 101 kPa, x1 = 0.09983	1.568
313.15 K, 101 kPa, x1 = 0.1935	1.5
313.15 K, 101 kPa, x1 = 0.3051	1.44
313.15 K, 101 kPa, x1 = 0.4055	1.468
313.15 K, 101 kPa, x1 = 0.4837	1.529
313.15 K, 101 kPa, x1 = 0.6005	1.613
313.15 K, 101 kPa, x1 = 0.6946	1.709
313.15 K, 101 kPa, x1 = 0.8028	1.861
313.15 K, 101 kPa, x1 = 0.8996	2.048

CCNCC + CCCCOCCO
viscosity [mPa·s], 100 kPa
Conditions	298.15 K	303.15 K	308.15 K
x2 = 0.0499	0.35	0.335	0.31
x2 = 0.1001	0.417	0.391	0.368
x2 = 0.1508	0.485	0.45	0.423
x2 = 0.2001	0.561	0.523	0.492
x2 = 0.2997	0.758	0.693	0.647
x2 = 0.3995	1.028	0.933	0.865
x2 = 0.5	1.356	1.212	1.116
x2 = 0.5999	1.72	1.516	1.389
x2 = 0.7	2.083	1.832	1.673
x2 = 0.7999	2.407	2.101	1.913
x2 = 0.8997	2.662	2.319	2.1
x2 = 0.9495	2.769	2.415	2.181

Nc1ccccc1 + CCCCOCCO
viscosity [mPa·s]
Conditions	298 K	303 K	303.15 K	308 K	313 K	318 K
101 kPa, x1 = 0.138	–	–	2.999	–	–	–
101 kPa, x1 = 0.2648	–	–	3.156	–	–	–
101 kPa, x1 = 0.3818	–	–	3.287	–	–	–
101 kPa, x1 = 0.49	–	–	3.4	–	–	–
101 kPa, x1 = 0.5903	–	–	3.486	–	–	–
101 kPa, x1 = 0.6837	–	–	3.553	–	–	–
101 kPa, x1 = 0.7708	–	–	3.614	–	–	–
101 kPa, x1 = 0.8522	–	–	3.666	–	–	–
101 kPa, x1 = 0.9284	–	–	3.707	–	–	–
101.3 kPa, x2 = 0.0995	3.539	2.974	–	2.573	2.238	1.967
101.3 kPa, x2 = 0.1968	3.471	2.915	–	2.528	2.189	1.929
101.3 kPa, x2 = 0.2548	3.448	2.887	–	2.512	2.184	1.922
101.3 kPa, x2 = 0.3024	3.429	2.886	–	2.507	2.16	1.905
101.3 kPa, x2 = 0.3953	3.397	2.86	–	2.482	2.145	1.893
101.3 kPa, x2 = 0.4355	3.39	2.854	–	2.477	2.143	1.892
101.3 kPa, x2 = 0.5146	3.35	2.833	–	2.463	2.123	1.875
101.3 kPa, x2 = 0.5909	3.31	2.805	–	2.438	2.108	1.856
101.3 kPa, x2 = 0.6936	3.219	2.731	–	2.381	2.07	1.827
101.3 kPa, x2 = 0.8002	3.1	2.588	–	2.332	2.02	1.787
101.3 kPa, x2 = 0.8933	2.974	2.545	–	2.259	1.962	1.742

CCNCC + CCCCOCCOCCO
viscosity [mPa·s], 100 kPa
Conditions	298.15 K	303.15 K	308.15 K
x2 = 0.05043	0.3695	0.3487	0.3286
x2 = 0.09991	0.457	0.4294	0.4036
x2 = 0.1494	0.5594	0.5411	0.4914
x2 = 0.2	0.699	0.6487	0.6022
x2 = 0.3	1.062	0.9662	0.8961
x2 = 0.4001	1.56	1.376	1.288
x2 = 0.5	2.156	1.896	1.722
x2 = 0.6	2.817	2.45	2.215
x2 = 0.6997	3.484	3.007	2.686
x2 = 0.7998	4.107	3.511	3.132
x2 = 0.9	4.667	3.966	3.532
x2 = 0.9491	4.904	4.167	3.705

CN(CCO)CCO + CCCCn1cc[n+](C)c1.F[B-](F)(F)F
Conditions	viscosity [mPa·s]
323.15 K, 101 kPa, x2 = 0.6997	20.65

COCCOCCOCCO + CCCN
298.15 K, 101 kPa
Conditions	viscosity [mPa·s]
x1 = 0.0053	0.369
x1 = 0.0087	0.378
x1 = 0.0251	0.415
x1 = 0.0368	0.44
x1 = 0.068	0.514
x1 = 0.081	0.549
x1 = 0.105	0.617
x1 = 0.1254	0.682
x1 = 0.1752	0.861
x1 = 0.2146	1.034
x1 = 0.2627	1.279
x1 = 0.2934	1.456
x1 = 0.3347	1.724
x1 = 0.3651	1.935
x1 = 0.4217	2.362
x1 = 0.471	2.749
x1 = 0.5445	3.35
x1 = 0.574	3.599
x1 = 0.6281	4.032
x1 = 0.6683	4.359
x1 = 0.7088	4.66
x1 = 0.7716	5.104
x1 = 0.812	5.359
x1 = 0.8595	5.626
x1 = 0.8867	5.774
x1 = 0.9185	5.92

C[NH+](CCO)CCO.O=C[O-] + CCCO
viscosity [mPa·s], 101 kPa
Conditions	293.15 K	303.15 K	313.15 K	323.15 K
x1 = 0.0561	29.65	17.05	8.082	5.559
x1 = 0.1033	51.95	25.07	13.55	9.307
x1 = 0.1976	99.81	47.76	25.74	17.6
x1 = 0.3071	159.4	78.44	41.48	28.28
x1 = 0.4049	216.8	106.9	57.05	38.83
x1 = 0.5231	293.9	143.5	78.48	53.2
x1 = 0.6246	369.5	179.8	99.71	67.21
x1 = 0.7259	455.1	222.6	123.6	82.66
x1 = 0.8079	531.2	261.8	144.3	95.86
x1 = 0.9055	627	310.4	169	111.4
x1 = 0.9558	671.4	331.9	180.4	118.7

Oc1ccc2ccccc2c1 + CCCO
viscosity [mPa·s], 101 kPa
Conditions	x1 = 0.04	x1 = 0.08	x1 = 0.12	x1 = 0.16	x1 = 0.2
293.15 K	2.6	3.004	3.529	4.172	4.954
303.15 K	2.025	2.288	2.658	3.1	3.63
313.15 K	1.635	1.803	2.062	2.37	2.764
323.15 K	1.326	1.447	1.636	1.869	2.168
